Measured values from patent US9562891B2, “Method for screening patient-specific anti-cancer agent using limiting dilution assay” (Samsung Life Public Welfare Foundation, priority 2013, dated 2017).

Assays:
[1] = tested on: patient-derived cancer cells (brain glioblastoma); experiment: Three-dimensional culture of patient-derived cancer cells in alginate on micropillar chip, Calcein AM sphere staining; format: cell-based, human
Protocol: The suspension-cultured neurospheres obtained in Example above were collected and treated with 0.025% trypsin/EDTA for 3 minutes, thereby obtaining cell suspensions at a level of a single cell. The cell suspensions were prepared at a concentration of 4 cells/30 nl, 10 cells/30 nl, 20 cells/30 nl, 40 cells/30 nl, 100 cells/30 nl and 200 cells/30 nl, respectively. 50 μL of 3% alginate (Sigma-Aldrich, US) and 100 μL distilled water were mixed to prepare 1% alginate, and then the cell suspensions and 1% alginate as prepared above were mixed together in the same amount. The prepared alginate/cell mixture was discharged onto the surface-modified micropillar using a microarray spotter (Samsung Electro-Mechanics Co., Korea), followed by gelation for 2 minutes so that an alginate gel containing 2, 5, 10, 20, 50 or 100 cells was fixed onto each micropillar (FIG. 1). Each of 950 nl of 2 μM, 5 μM or 10 μM SU11274 (Sigma-Aldrich, US) was dispersed into a microwell chip (Samsung Electro-Mechanics Co., Korea) and the micropillar chip was subjected to stamping. […] 4 doubling time incubation was performed until spheres were formed from the patient-derived cancer cells, and the micropillar chip was subjected to fluorescence staining. […]

[2] = tested on: 775T cell line (patient-derived brain glioblastoma); experiment: Screening of anti-cancer agent using limiting dilution assay (sphere formation, ratio of non-formed wells); format: cell-based, human; settings: 775T as compared to 448T and 464T cell lines; cultured 2 to 3 weeks (FIG. 5)
Source text: The patient-specific anti-cancer agent was screened by using a limiting dilution assay according to the above-described Examples, and a result obtained therefrom was compared with a result separately obtained by a screening method using a 96 well plate. Alginate gel containing 2, 5, 10, 20, 50 or 100 cells was discharged onto each micropillar and was subjected to stamping into a culture medium containing the anti-cancer agent. The anti-cancer agent SU11274 and PHA665752, which is c-Met inhibitor, was treated for each concentration. A size of spheres formed after being cultured for 2 to 3 weeks was automatically measured and analyzed. Whether or not the sphere is formed was determined by culturing cells of the experimental group and the control group up to 4 doubling times and comparing sphere area max values of the biggest spheres among the spheres formed in each well, as shown in FIG. 4. […] Here, the well having sphere area max value smaller than the reference value was determined that the spheres were not formed in the well (non-formed). The well having sphere area max value as the same as the average value of the sphere area max of the control group or higher than that was determined that the sphere were formed in the well (formed). […]

| Compound | survival rate of the cancer cells ([1]; 2 μM, 5 μM or 10 μM, 2-100 cells per alginate gel, cultured 12 days, Calcein AM staining (FIG. 2)) | sphere formation (maximum sphere area) ([1]; 5 uM, 12 days, control group sphere areas increased to a maximum of 10.14 times (FIG. 3)) | sensitivity of cell line to anti-cancer effect in limiting dilution assay [2] |
| --- | --- | --- | --- |
| Cc1[nH]c(/C=C2\C(=O)Nc3ccc(S(=O)(=O)N(C)c4cccc(Cl)c4)cc32)c(C)c1C(=O)N1CCN(C)CC1 [SU11274] | survival rate of the cancer cells were decreased | did not form the spheres | most sensitive anti-cancer effects |
| Cc1[nH]c(/C=C2\C(=O)Nc3ccc(S(=O)(=O)Cc4c(Cl)cccc4Cl)cc32)c(C)c1C(=O)N1CCC[C@@H]1CN1CCCC1 [PHA665752] |  |  | most sensitive anti-cancer effects |
